Measured values reported in ChEMBL document CHEMBL4368866, “Discovery of a 3,4,5-trisubstituted-1,2,4-triazole agonist with high affinity and selectivity at the somatostatin subtype-4 (sst4) receptor” (Medchemcomm, 2018).

Experiments:
[1] = target: T1, Somatostatin receptor type 4 (Homo sapiens, UniProt P31391); test: Agonist activity at recombinant human SST4 receptor expressed in CHOK1 cell membranes assessed as inhibition of forskolin-stimulated cAMP accumulation measured after 2.5 to 20 hrs by TR-FRET assay; type: functional, cell-based
T1 sequence (P31391 whole entry): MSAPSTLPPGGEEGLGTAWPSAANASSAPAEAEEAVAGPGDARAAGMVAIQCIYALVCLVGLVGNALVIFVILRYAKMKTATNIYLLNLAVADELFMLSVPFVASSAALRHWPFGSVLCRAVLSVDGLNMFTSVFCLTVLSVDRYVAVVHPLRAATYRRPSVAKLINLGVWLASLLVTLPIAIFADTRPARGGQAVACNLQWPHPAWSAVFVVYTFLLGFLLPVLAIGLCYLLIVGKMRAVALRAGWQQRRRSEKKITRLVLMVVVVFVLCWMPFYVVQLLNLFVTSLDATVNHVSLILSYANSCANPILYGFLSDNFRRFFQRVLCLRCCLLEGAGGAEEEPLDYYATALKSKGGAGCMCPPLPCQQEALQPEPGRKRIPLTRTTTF

[2] = organism: Homo sapiens; test: Selectivity ratio of Ki for displacement of [125I]-Tyr-SRIF from SST3 receptor (unknown origin) to Ki for displacement of [125I]-Tyr-SRIF from recombinant human SST4 receptor expressed in CHOK1 cell membranes
[3] = target: Somatostatin receptor type 1 (Homo sapiens, UniProt P30872); test: Displacement of [125I]-Tyr-SRIF from SST1 receptor (unknown origin) after 90 mins by gamma counting method
Sequence of Somatostatin receptor type 1 (P30872 whole entry): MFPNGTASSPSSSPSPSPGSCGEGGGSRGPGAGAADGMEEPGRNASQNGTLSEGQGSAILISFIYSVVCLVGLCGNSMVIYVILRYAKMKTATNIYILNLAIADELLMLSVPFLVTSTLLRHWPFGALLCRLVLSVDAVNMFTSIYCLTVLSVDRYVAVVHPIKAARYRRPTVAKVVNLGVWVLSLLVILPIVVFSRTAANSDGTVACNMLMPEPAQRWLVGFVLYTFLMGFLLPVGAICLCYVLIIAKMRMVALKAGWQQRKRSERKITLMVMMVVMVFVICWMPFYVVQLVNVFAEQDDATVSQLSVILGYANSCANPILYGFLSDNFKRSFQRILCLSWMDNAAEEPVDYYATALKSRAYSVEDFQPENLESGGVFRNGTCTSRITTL

[4] = organism: Homo sapiens; test: Selectivity ratio of Ki for displacement of [125I]-Tyr-SRIF from SST1 receptor (unknown origin) to Ki for displacement of [125I]-Tyr-SRIF from recombinant human SST4 receptor expressed in CHOK1 cell membranes
[5] = organism: Homo sapiens; test: Selectivity ratio of Ki for displacement of [125I]-Tyr-SRIF from recombinant human SST2A receptor expressed in CHOK1 cell membranes to Ki for displacement of [125I]-Tyr-SRIF from recombinant human SST4 receptor expressed in CHOK1 cell membranes
[6] = organism: Homo sapiens; test: Selectivity ratio of Ki for displacement of [125I]-Tyr-SRIF from SST5 receptor (unknown origin) to Ki for displacement of [125I]-Tyr-SRIF from recombinant human SST4 receptor expressed in CHOK1 cell membranes
[7] = target: T2, Somatostatin receptor type 2 (Homo sapiens, UniProt P30874); test: Displacement of [125I]-Tyr-SRIF from recombinant human SST2A receptor expressed in CHOK1 cell membranes after 90 mins by gamma counting method
T2 sequence (P30874 whole entry): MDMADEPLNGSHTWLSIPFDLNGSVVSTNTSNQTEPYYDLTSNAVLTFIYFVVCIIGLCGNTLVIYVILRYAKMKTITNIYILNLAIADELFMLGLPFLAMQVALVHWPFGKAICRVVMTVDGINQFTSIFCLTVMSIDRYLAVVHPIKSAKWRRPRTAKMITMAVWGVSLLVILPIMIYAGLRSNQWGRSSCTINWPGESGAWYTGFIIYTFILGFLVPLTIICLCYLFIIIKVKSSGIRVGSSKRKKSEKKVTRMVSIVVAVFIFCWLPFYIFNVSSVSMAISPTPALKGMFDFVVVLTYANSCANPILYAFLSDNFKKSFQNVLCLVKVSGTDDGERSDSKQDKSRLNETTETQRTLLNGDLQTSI

[8] = target: Somatostatin receptor type 3 (Homo sapiens, UniProt P32745); test: Displacement of [125I]-Tyr-SRIF from SST3 receptor (unknown origin) after 90 mins by gamma counting method
Sequence of Somatostatin receptor type 3 (P32745 whole entry): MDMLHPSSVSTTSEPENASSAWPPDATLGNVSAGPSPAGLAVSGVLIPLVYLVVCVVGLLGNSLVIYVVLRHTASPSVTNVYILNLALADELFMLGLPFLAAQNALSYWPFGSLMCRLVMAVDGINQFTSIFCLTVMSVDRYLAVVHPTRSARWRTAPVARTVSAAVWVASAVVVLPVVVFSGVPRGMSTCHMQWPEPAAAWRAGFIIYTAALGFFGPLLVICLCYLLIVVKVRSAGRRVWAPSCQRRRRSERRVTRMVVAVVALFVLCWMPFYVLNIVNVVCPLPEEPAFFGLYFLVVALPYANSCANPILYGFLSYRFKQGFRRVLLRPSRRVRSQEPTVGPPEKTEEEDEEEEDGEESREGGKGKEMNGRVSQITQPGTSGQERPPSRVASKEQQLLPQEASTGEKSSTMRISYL

[9] = target: T1, Somatostatin receptor type 4; test: Displacement of [125I]-Tyr-SRIF from recombinant human SST4 receptor expressed in CHOK1 cell membranes after 90 mins by gamma counting method
[10] = target: Somatostatin receptor type 5 (Homo sapiens, UniProt P35346); test: Displacement of [125I]-Tyr-SRIF from SST5 receptor (unknown origin) after 90 mins by gamma counting method
Sequence of Somatostatin receptor type 5 (P35346 whole entry): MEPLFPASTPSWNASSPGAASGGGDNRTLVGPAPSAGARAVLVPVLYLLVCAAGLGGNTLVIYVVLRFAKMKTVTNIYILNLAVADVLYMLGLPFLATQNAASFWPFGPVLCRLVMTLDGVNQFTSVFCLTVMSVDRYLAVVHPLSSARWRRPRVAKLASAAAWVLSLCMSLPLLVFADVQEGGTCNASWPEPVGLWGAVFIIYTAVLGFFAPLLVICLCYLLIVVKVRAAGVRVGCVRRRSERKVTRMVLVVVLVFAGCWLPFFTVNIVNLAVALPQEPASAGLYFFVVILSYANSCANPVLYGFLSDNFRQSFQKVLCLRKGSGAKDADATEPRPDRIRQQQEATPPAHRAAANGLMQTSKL

[11] = target: T2, Somatostatin receptor type 2; test: Displacement of [125I]-LTT-SRIF-28 from recombinant human SST2 receptor expressed in CHO cell membranes after 60 mins by scintillation counting method
[12] = target: T2, Somatostatin receptor type 2; test: Displacement of 3-[125I]iodotyrosyl25-somatostatin-28 from recombinant human SST2 receptor expressed in CHOK1 cell membranes after 45 mins by scintillation counting method
[13] = target: T1, Somatostatin receptor type 4; test: Displacement of 3-[125I]iodotyrosyl25-somatostatin-28 from recombinant human SST4 receptor expressed in CHOK1 cell membranes after 45 mins by scintillation counting method

| Compound | Ki [7] [µM] | Ki [9] [µM] | also measured |
| --- | --- | --- | --- |
| Clc1ccc(Cc2nnc(CCc3c[nH]c4ccccc34)n2CCCc2c[nH]cn2)cc1Cl | > 10 | 0.019 | EC50 [1]: 0.0068 µM; Ratio Ki [2]: 350; Ki [3]: 4.75 µM; Ratio Ki [4]: 250; Ratio Ki [5]: > 500; Ratio Ki [6]: > 500; Ki [8]: 6.63 µM; Ki [10]: > 10 µM |
| Cc1ccc(S(=O)(=O)N[C@@H](CCN)C(=O)N[C@@H](Cc2ccccc2)C(N)=O)c2ccccc12 | – | – | Ki [11]: > 5 µM |
| Clc1ccc(Cn2c(CCc3c[nH]cn3)nnc2CCc2c[nH]c3ccccc23)cc1Cl | > 10 | 1.43 | – |
| Clc1ccc(Cn2c(CCc3c[nH]cn3)nnc2Cc2c[nH]c3ccccc23)cc1Cl | > 10 | > 10 | – |
| Clc1ccc(Cc2nnc(C3CCNCC3)n2CCc2c[nH]c3ccccc23)cc1Cl | – | > 10 | – |
| NCCCc1nnc(Cc2ccc(Cl)c(Cl)c2)n1CCc1c[nH]c2ccccc12 | – | > 10 | – |
| COC(=O)[C@H](CCCN=C(N)N)NC(=O)CCCc1c(-c2ccccc2)[nH]c2c(F)cc(F)cc12 | – | – | Ki [12]: 4.72 µM; Ki [13]: 0.0007 µM |
| NCCCc1nnc(Cc2c[nH]c3ccccc23)n1Cc1ccc(Cl)c(Cl)c1 | > 10 | > 10 | – |
| c1ccc(Cn2c(CCc3c[nH]c4ccccc34)nnc2C2CCNCC2)cc1 | > 10 | > 10 | – |
| c1ccc(CCn2c(CCc3c[nH]cn3)nnc2CCc2c[nH]c3ccccc23)cc1 | > 10 | 2.03 | – |
| Clc1ccc(Cn2c(CCc3c[nH]c4ccccc34)nnc2C2CCNCC2)cc1Cl | > 10 | > 10 | – |
| NCCCc1nnc(Cc2c[nH]c3ccccc23)n1Cc1ccccc1 | – | > 10 | – |

More lines, main results first:

| Ki [7] [µM] | Ki [9] [µM] | Compound | also measured |
| --- | --- | --- | --- |
| – | 4.47 | c1ccc(Cn2c(CCc3c[nH]cn3)nnc2CCc2c[nH]c3ccccc23)cc1 | – |
| > 10 | > 10 | NCCCc1nnc(CCc2c[nH]c3ccccc23)n1Cc1ccc(Cl)c(Cl)c1 | – |
| > 10 | 2.38 | NCCCn1c(CCc2c[nH]c3ccccc23)nnc1Cc1ccc(Cl)c(Cl)c1 | – |
| > 10 | > 10 | c1ccc(Cn2c(Cc3c[nH]c4ccccc34)nnc2C2CCNCC2)cc1 | – |
| – | > 10 | Clc1ccc(Cn2c(Cc3c[nH]c4ccccc34)nnc2C2CCNCC2)cc1Cl | – |
| > 10 | < 10 | NCCCc1nnc(CCc2c[nH]c3ccccc23)n1Cc1ccccc1 | – |
| – | > 10 | c1ccc(Cn2c(CCc3c[nH]cn3)nnc2Cc2c[nH]c3ccccc23)cc1 | – |
| > 10 | 4.8 | Clc1ccc(Cc2nnc(CCc3c[nH]cn3)n2CCc2c[nH]c3ccccc23)cc1Cl | – |
